The values that follow come from PMC10026764, “Overcoming the imatinib-resistant BCR-ABL mutants with new ureidobenzothiazole chemotypes endowed with potent and broad-spectrum anticancer activity” (Journal of Enzyme Inhibition and Medicinal Chemistry, 2023).

Assay [1] deals with T1, BCR-ABL^WT (Homo sapiens, UniProt P00519). The experiment in a line: In vitro kinase screening (RBC), BCR-ABL^WT. The assay is classed as biochemical. The following applies: 10-dose IC50 mode, 3-fold serial dilution, 10 μM ATP.
The target of assay [2] is T2, BCR-ABL^T315I (Homo sapiens, UniProt P00519, T315I).
T2 construct: purchased Reaction Biology Corporation (RBC, Malvern, PA, USA)
The experiment in a line: In vitro kinase screening (RBC), BCR-ABL^T315I. Format: biochemical. Particulars: 10-dose IC50 mode, 3-fold serial dilution, 10 μM ATP.

The subject of another assay is L132 normal cell. The experiment in a line: MTT antiproliferative assay. Particulars: Homo sapiens, L132, 72 h, read-out: GI50 L132. A general note: Formazan colour is commonly taken as a measure of viable cells.
The next assay concerns leukaemia K-562 cells. The experiment in a line: MTT antiproliferative assay. The following applies: for GI50: Homo sapiens, K562, 72 h, read-out: GI50 K-562; for SI: selectivity index (GI50 (L132)/GI50 (K562)): MTT, 72 h.
The target of another assay is DDR1 (Homo sapiens, UniProt Q08345). The experiment in a line: Kinase selectivity test against DDR1. The assay is classed as biochemical. How it is done:
On the other hand, to gain certain insights about the kinase selectivity of this array of ureidobenzothiazoles, compounds 2a and 2b were tested against DDR1 (Figure 4). Discoidin domain receptors (DDR1/2) are transmembrane receptor tyrosine kinases (RTKs), activated by fibrillar collagens. DDR1/2 and BCR-ABL share almost 61% sequence similarities in their ATP binding domains. […] This observation points out the merit of these ureidobenzothiazoles over the known BCR-ABL inhibitors in achieving exceptional selectivity towards BCR-ABL.

In another assay the test system is NCI-60 cell lines. The experiment in a line: NCI-60 single dose SRB assay (panel). The assay is classed as cell-based. The following applies: single dose 10 μM. From the text: To gain further insights about the anticancer profile of this new ureidobenzothiazole chemotypes, the structures of all final compounds were submitted to the National Cancer Institute (NCI, Developmental Therapeutics Program, Bethesda, MD, USA). Based on NCI selection criteria, compounds 2b (AK-HW-90), 2e, and 2f were chosen for broad screening against a library of 60 human cancer cell lines, representing nine types of blood and solid cancers. Employing the highly sensitive sulforhodamine B (SRB) assay, compounds 2b, 2e, and 2f were tested initially at a single dose of 10 μM, and their detailed activities on the percentages growth of the NCI-60 cell lines were illustrated in Figure 5, and compared with that observed for the lead benzothiazole AKE-5l.
A general note: In SRB staining, fixed cells bind dye roughly in proportion to their protein.

The test system of the next assay is K-562 cell line. Further details: method as in PMID 25881828. The following applies: K-562, single dose 10 μM; cited from earlier work.
Assay [3] deals with T2, BCR-ABL^T315I. Particulars: reported values ref 19; cited from earlier work.
The target of assay [4] is T1, BCR-ABL^WT. Further details: method as in PMID 25881828. Particulars: reported values ref 19; cited from earlier work.

Structures are written as SMILES. Where “and” joins values, the source holds several entries; their conditions need not be identical. Identical values can stand only once. Like-named read-outs stand apart in the source and are kept apart here. Some results are limits rather than exact numbers.

DDR1, sequence (Q08345 19-913, species assumed): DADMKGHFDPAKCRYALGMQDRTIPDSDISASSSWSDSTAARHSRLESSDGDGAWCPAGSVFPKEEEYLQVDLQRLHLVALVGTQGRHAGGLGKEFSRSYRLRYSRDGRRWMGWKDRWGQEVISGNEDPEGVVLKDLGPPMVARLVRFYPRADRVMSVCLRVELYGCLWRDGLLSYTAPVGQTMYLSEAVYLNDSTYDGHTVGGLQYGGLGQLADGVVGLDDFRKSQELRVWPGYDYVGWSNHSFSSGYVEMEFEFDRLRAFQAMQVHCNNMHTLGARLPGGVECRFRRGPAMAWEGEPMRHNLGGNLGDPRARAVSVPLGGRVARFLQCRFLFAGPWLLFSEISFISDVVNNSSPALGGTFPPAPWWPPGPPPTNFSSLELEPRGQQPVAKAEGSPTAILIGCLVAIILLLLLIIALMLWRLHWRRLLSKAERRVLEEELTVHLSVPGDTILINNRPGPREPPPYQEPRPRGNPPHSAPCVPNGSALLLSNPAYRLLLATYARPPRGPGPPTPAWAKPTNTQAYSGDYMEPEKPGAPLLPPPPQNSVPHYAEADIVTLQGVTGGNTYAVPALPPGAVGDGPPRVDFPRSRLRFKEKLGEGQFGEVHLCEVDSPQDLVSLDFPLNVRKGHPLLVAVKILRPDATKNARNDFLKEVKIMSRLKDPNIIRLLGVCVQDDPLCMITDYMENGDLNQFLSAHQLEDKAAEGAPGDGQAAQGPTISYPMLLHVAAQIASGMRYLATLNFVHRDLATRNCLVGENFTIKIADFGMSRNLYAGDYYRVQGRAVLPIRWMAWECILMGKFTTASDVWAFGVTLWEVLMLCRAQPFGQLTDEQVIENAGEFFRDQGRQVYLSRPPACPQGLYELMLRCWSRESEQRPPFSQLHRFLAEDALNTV
From the text for L132 normal cell: (§1) These cellular outcomes define the impact of BCR-ABL inhibition on the proliferation of K-562 cells.
From the text for leukaemia K-562 cells: as §1

Take `COc1ccccc1-c1ccc2nc(NC(=O)Nc3ccc(N4CCOCC4)cc3)sc2c1` [Compound 2c]: the figures for the IC50 at BCR-ABL^WT [1] and against BCR-ABL^T315I [2] were 2.16 nM and 8.11 nM, respectively. The GI50 with L132 normal cell stood at 26100 nM; in the assay with leukaemia K-562 cells, 3820 nM. For the same molecule, the “SI: selectivity index (GI50 (L132)/GI50 (K562))” value in the assay with leukaemia K-562 cells is reported as 6.8.
In the case of `COc1ccccc1-c1ccc2nc(NC(=O)Nc3cccc(C(F)(F)F)c3)sc2c1` [Compound 2d], in the assay on leukaemia K-562 cells, the GI50 is > 10000 nM.
As for `COc1ccccc1-c1ccc2nc(NC(=O)Nc3ccc(N4CCN(C)CC4)cc3)sc2c1` [Compound 2a], the half-inhibitory concentration (IC50) was 195 nM at DDR1; 1.5 nM against BCR-ABL^WT [1]; 2 nM and 2.03 nM against BCR-ABL^T315I [2]. Also, the 50% growth inhibitory concentration (GI50) in the assay with L132 normal cell was 26800 nM; in the assay on leukaemia K-562 cells, 4520 nM. Further, the “SI: selectivity index (GI50 (L132)/GI50 (K562))” value in the assay with leukaemia K-562 cells is on record as 5.9.
In the case of `COc1ccccc1-c1ccc2nc(NC(=O)Nc3ccc(CN4CCOCC4)c(C(F)(F)F)c3)sc2c1` [Compound 2f], the “number of cancer cells with cytostatic growth inhibitory activity (% growth less than 40)” value in the assay with NCI-60 cell lines was found to be 14 cancer cells. For the same molecule, the IC50 at BCR-ABL^WT [1] worked out at 74.6 nM; on BCR-ABL^T315I [2] it was 226 nM. For the same molecule, the GI50 with leukaemia K-562 cells is > 10000 nM.
As to `CNC(=O)c1cc(Oc2ccc3nc(NC(=O)NCCCN4CCN(C)CC4)sc3c2)ccn1` [AKE-5l], in the assay on K-562 cell line, the “% growth” value is recorded as 10.22%. In addition, the IC50 is 39.9 nM at BCR-ABL^T315I [3] and 18.2 nM on BCR-ABL^WT [4].

By IC50 is commonly meant the concentration that inhibits the measured activity by half. A word on the GI50: it is the concentration at which growth is held to half of that of the control.
